Laboratory results reported in patent US20100166804A1, “METHODS” (priority 2007, published 2010).

Columns and labels:
[1] = system: patients with a history of peanut allergy; assay: Double-blind randomized oral food challenge with peanut flour (Example 1); type: in vivo; conditions: 1 mg ketotifen orally twice daily vs placebo; oral food challenge at two, four and six weeks
Description: (§1) To analyze hypersensitivity to an allergen, e.g., peanut, a double-blind, randomized, dose-ranging study is carried out with patients with a history of peanut allergy manifested by urticaria, angioedema, respiratory tract symptoms or hypotension generally using the methods described in Israel et al., Am. J. Respir. Crit. Care Med., (2000) 164:75-80. Eligible patients include those with serum total IgE level of 30-1000 IU/mL and/or a positive skin-prick test to peanut. Patients must have asthma condition under control with a forced expiratory volume in one second that is at least 80 percent of the predicted value. Patients may not have taken systemic corticosteroids, beta-blockers, acetylcholinesterase, aspirin, antihistamines and anti-depressants prior to and throughout the study.
Before enrollment, threshold level for reactivity to peanut allergen is confirmed by a screening double-blind, placebo-controlled oral food challenge. […] Vital signs are checked, chest auscultation is performed, and peak expiratory flow rates are monitored every 30 minutes during the food challenge and for at least 2 hours after the last dose or the abatement of any symptoms or signs. […]
(§2) Peak expiratory flow rates are monitored every 30 minutes during food challenge for at least 2 hours after the last does or abatement of any symptoms or signs. […]

[2] = system: patients with a history of peanut allergy; assay: Double-blind randomized dose-ranging oral food challenge with peanut flour (Example 3); type: in vivo; conditions: 0.5, 1 or 2 mg ketotifen orally twice daily vs placebo; oral food challenge at two, four and six weeks
Description: as §1, with “to” for “to an allergen, e.g.,”, “take” for “have taken”, “during” for “prior to and throughout”
Before enrollment, threshold level for reactivity to peanut allergen is confirmed by a screening double-blind, placebo-controlled oral food challenge. Base line spirometry, peak expiratory flow rates and continuous cardiac monitoring is established. Vital signs are checked, chest auscultation is performed, and peak expiratory flow rates are monitored every 30 minutes during the food challenge and for at least 2 hours after the last dose or the abatement of any symptoms or signs. […]
as §2

[3] = system: patients with a history of bee sting allergy; assay: Double-blind randomized dose-ranging bee venom challenge (Example 4); type: in vivo; conditions: 0.5, 1 or 2 mg ketotifen orally twice daily vs placebo; bee venom challenge at two, four and six weeks
Description: as §1, with “bee venom,” for “an allergen, e.g., peanut,”, “bee sting” for “peanut”, “bee venom.” for “peanut.”, “take” for “have taken”, “during” for “prior to and throughout”
Before enrollment, threshold level for reactivity to bee venom allergen is confirmed by a screening double-blind, placebo-controlled bee venom challenge. […] Vital signs are checked, chest auscultation is performed, and peak expiratory flow rates are monitored and bee venom specific IgE level and basal tryptase level are measured every 30 minutes during the challenge and for at least 2 hours after the last dose or the abatement of any symptoms or signs. […] The wheal size is evaluated 15 min after application. […] Patients are closely monitored for any systemic reaction. […]

[4] = system: subjects with an allergy to peanut; assay: Oral peanut tolerization therapy with concomitant ketotifen fumarate, randomized double-blind placebo-controlled (Example 5); type: in vivo, patients
Description: A study is performed to evaluate the dose-related effects of ketotifen fumarate on the scope and severity of allergic signs and symptoms resulting from concomitant oral peanut tolerization therapy. The study also evaluates the effects of discontinuation of ketotifen therapy on the scope and severity of allergic signs and symptoms resulting from concomitant oral peanut tolerization therapy after 12 or 16 weeks, while oral peanut tolerization therapy is continued. The study also evaluates the effects of ketotifen therapy on the scope and severity of allergic signs and symptoms resulting from concomitant oral peanut tolerization therapy when ketotifen dosing is initiated after 12 weeks of oral peanut tolerization therapy. The study generally consists of screening, baseline, treatment, and post-treatment follow-up periods, and is randomized, double-blind, placebo-controlled, and in parallel groups.
Patients selected are generally healthy subjects between the ages of 2 and 50 with an allergy to peanut which provokes signs and symptoms of an anaphylactic reaction. The patients may also have co-morbid atopic dermatitis and/or allergic rhinitis. If a patient is selected for the study, they are randomly assigned a treatment of 0.5 mg oral ketotifen fumarate, 2.0 mg oral ketotifen fumarate, or placebo (n=12 for each group).
During the treatment period, patients receive ketotifen fumarate or placebo for one week prior to tolerization therapy. At week 1, oral peanut tolerization therapy is begun with peanut flour, and safety evaluations are performed. The oral dose of peanut flour is increased at weeks 3, 5, 7, 9, 11 and 13, and safety evaluations are performed at that time.
At week 13, half of the patients in each of the ketotifen groups are switched in a double-blind fashion to placebo, and subjects in the placebo treatment group are switched in a double-blind fashion to receive 2.0 mg oral ketotifen. Patients continue in the study for an additional 4 weeks. At weeks 15 and 17, the peanut flour dose is increased, and safety evaluations are performed. […]

[5] = patients initially receiving ketotifen, switched to placebo at week 13, final 4 weeks

For `CN1CCC(=C2c3ccccc3CC(=O)c3sccc32)CC1` [ketotifen], the “patients' threshold sensitivity to peanut upon oral ingestion (change from base line in log-transformed threshold dose of peanut flour that induced hypersensitivity)” value [1] was “significantly increase”, the “patients' tolerance to peanut upon oral ingestion (change from base line in log-transformed threshold dose of peanut flour that induced hypersensitivity)” value [2] was “significantly increase” and the “patients' tolerance to bee venom (change from base line in log-transformed threshold dose of bee venom that induced hypersensitivity)” value [3] was “significantly increase”. The “amount of peanut flour that is well-tolerated” value ([4]; 0.5 mg or 2.0 mg oral ketotifen fumarate vs placebo during oral peanut tolerization therapy) was “tolerate more peanut flour than patients in the placebo group”, the “escape therapy required, vs patients continuously receiving ketotifen” value [4, 5] was “require similar escape therapy” and the “escape therapy required, vs patients continuously receiving the placebo” value [4, 5] was “require less escape therapy”.
